In assay [1] the target is T1, Cyclin-dependent kinase-like 2 (Homo sapiens) (UniProt Q92772).
T1 sequence (whole entry): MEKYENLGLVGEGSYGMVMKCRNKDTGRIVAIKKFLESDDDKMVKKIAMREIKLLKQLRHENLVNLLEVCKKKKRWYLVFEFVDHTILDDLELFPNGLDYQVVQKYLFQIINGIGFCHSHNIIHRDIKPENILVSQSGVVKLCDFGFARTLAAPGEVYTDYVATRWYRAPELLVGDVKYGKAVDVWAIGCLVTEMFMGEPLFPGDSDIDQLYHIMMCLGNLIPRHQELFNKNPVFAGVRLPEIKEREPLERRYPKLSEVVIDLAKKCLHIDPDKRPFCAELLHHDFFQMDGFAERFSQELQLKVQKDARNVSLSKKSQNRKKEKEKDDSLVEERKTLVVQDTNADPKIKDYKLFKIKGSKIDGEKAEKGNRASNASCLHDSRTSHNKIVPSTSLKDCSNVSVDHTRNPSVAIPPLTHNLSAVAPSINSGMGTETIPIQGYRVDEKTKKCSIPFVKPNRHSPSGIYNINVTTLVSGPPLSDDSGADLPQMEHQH
Briefly: Selectivity interaction (Ambit KINOMEscan and KiNATiv profiling in Jurkat cells) EUB0000090b CDKL2. The following applies: at 1 µM. In kind it is cell-based.

Assay [2] has as its target 5'-AMP-activated protein kinase catalytic subunit alpha-2 (Homo sapiens) (UniProt P54646). The following applies: at 10 µM.
Assay [3] concerns the target Tyrosine-protein kinase Fgr (Homo sapiens) (UniProt P09769). The assay is described as follows: Selectivity interaction (KinomeScan (DiscoverX)) EUB0001079a FGR. The following applies: at 1 µM.
For assay [4], the system named is Mast/stem cell growth factor receptor Kit (Homo sapiens), P10721 [A829P]. The assay is described as follows: (§1) Selectivity interaction (KinomeScan (DiscoverX)) EUB0001049a KIT. The following applies: at 1 µM.
For assay [5], the system named is Mast/stem cell growth factor receptor Kit (Homo sapiens), P10721 [D816H]. The assay is described as §1. To be noted: at 1 µM.
Assay [6] concerns Mast/stem cell growth factor receptor Kit (Homo sapiens), P10721 [D816V]. Described as §1. The following applies: at 1 µM.
Chain of Mast/stem cell growth factor receptor Kit (Homo sapiens), P10721 [D816V] (P10721 whole entry D816V): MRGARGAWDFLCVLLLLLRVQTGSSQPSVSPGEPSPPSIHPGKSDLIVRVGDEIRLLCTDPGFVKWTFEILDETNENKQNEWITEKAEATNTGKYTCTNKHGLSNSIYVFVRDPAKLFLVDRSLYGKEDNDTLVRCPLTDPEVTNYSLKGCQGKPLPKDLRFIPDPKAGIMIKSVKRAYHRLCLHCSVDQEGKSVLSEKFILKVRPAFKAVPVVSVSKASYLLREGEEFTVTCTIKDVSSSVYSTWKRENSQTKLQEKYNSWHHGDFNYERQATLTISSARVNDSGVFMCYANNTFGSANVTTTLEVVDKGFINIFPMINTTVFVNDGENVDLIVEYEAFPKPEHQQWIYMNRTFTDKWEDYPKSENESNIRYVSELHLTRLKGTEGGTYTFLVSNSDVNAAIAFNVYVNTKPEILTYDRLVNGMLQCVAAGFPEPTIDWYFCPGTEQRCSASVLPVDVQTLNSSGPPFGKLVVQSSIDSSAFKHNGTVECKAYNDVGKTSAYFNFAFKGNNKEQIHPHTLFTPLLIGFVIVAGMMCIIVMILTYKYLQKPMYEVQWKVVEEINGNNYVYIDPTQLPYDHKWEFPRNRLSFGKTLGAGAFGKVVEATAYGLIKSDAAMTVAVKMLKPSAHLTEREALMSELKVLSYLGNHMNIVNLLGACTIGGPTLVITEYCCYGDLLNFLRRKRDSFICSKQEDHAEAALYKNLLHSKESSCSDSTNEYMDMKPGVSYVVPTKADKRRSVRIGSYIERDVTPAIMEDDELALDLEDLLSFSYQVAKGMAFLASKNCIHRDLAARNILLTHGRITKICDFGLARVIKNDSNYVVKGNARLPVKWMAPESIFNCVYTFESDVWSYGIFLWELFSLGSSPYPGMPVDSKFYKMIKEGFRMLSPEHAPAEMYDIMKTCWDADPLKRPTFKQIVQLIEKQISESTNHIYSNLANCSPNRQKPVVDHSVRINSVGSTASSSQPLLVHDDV
For assay [7], the system named is Mast/stem cell growth factor receptor Kit (Homo sapiens), P10721 [L576P]. The description is as §1. To be noted: at 1 µM.
Assay [8] relates to Mast/stem cell growth factor receptor Kit (Homo sapiens), P10721 [V559D,T670I]. Described as §1. The following applies: at 1 µM.
Assay [9] relates to Mast/stem cell growth factor receptor Kit (Homo sapiens), P10721 [V559D,V654A]. The assay is described as §1. To be noted: at 1 µM.
Chain of Mast/stem cell growth factor receptor Kit (Homo sapiens), P10721 [V559D,V654A] (P10721 whole entry V559D/V654A): as the sequence (P10721 whole entry D816V) above, with V559D, V654A, V816D counted along it
The test system of assay [10] is Mast/stem cell growth factor receptor Kit (Homo sapiens), P10721 [V559D]. The assay is described as §1. To be noted: at 1 µM.
Assay [11] concerns the target Mast/stem cell growth factor receptor Kit (Homo sapiens, UniProt P10721). The assay is described as §1. To be noted: at 1 µM.
Assay [12] has as its target Mitogen-activated protein kinase 7 (Homo sapiens) (UniProt Q13164). The assay is described as follows: Selectivity interaction (KinomeScan (DiscoverX)) EUB0000655a MAPK7. The following applies: at 10 µM.
The target in assay [13] is Activin receptor type-1-like (Homo sapiens) (UniProt P37023). The assay is described as follows: Selectivity interaction (KinomeScan (DiscoverX)) EUB0000045b ACVRL1.
Chain of Activin receptor type-1-like (Homo sapiens) (P37023 whole entry): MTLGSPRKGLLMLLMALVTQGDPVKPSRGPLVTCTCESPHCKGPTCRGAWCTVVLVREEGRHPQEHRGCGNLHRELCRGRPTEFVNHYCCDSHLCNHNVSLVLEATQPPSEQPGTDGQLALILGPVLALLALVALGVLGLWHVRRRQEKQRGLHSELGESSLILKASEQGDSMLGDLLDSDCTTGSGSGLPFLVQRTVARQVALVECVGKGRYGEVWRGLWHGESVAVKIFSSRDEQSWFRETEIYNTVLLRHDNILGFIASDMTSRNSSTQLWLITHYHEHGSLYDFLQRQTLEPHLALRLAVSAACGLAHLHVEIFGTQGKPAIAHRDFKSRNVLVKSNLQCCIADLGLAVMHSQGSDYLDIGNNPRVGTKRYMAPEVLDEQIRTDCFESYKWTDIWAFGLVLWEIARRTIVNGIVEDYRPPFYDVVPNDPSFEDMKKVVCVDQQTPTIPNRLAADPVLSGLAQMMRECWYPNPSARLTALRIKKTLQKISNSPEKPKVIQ
Assay [14] addresses T2, Rhodopsin kinase GRK1 (Homo sapiens) (UniProt Q15835).
T2 sequence (whole entry): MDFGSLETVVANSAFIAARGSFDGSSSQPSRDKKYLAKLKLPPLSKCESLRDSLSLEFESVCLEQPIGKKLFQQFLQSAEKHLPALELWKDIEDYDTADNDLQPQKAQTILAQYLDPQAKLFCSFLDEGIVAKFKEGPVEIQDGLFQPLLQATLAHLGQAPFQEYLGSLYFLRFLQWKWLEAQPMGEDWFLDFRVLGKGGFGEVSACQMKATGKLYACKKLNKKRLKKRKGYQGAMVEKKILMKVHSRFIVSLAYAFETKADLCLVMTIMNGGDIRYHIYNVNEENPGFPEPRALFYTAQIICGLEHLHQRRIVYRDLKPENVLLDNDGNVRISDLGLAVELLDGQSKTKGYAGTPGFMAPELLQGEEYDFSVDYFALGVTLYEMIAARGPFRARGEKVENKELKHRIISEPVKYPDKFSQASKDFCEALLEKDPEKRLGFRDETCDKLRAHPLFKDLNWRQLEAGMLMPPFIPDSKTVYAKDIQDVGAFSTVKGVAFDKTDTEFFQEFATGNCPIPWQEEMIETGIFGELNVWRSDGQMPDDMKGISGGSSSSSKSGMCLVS
Briefly: Selectivity interaction (KinomeScan (DiscoverX)) EUB0000045b GRK1.

Assay [15] addresses Tyrosine-protein kinase ABL2 (Homo sapiens, UniProt P42684). The assay is described as follows: Selectivity interaction (ActivX KiNativ screen (kinase selectivity in THP-1 cell lysates)) EUB0000639a ABL2. In kind it is subcellular. To be noted: lysate.
The target in assay [16] is MAP/microtubule affinity-regulating kinase 3 (Homo sapiens) (UniProt P27448). The assay is described as follows: Selectivity interaction (ActivX KiNativ screen (kinase selectivity in THP-1 cell lysates)) EUB0000639a MARK3. In kind it is subcellular. The following applies: lysate, at 1 µM.
For assay [17], the target named is Macrophage colony-stimulating factor 1 receptor (Homo sapiens) (UniProt P07333). Briefly: Selectivity interaction (KinomeScan (DiscoverX)) EUB0000229b CSF1R. The following applies: at 10 µM.
In assay [18] the target is Homeodomain-interacting protein kinase 1 (Homo sapiens, UniProt Q86Z02). Briefly: Selectivity interaction (KinomeScan (DiscoverX)) EUB0000595a HIPK1. To be noted: at 10 µM.
The target in assay [19] is T3, Serine/threonine-protein kinase Chk1 (Homo sapiens) (UniProt O14757).
T3 sequence (whole entry): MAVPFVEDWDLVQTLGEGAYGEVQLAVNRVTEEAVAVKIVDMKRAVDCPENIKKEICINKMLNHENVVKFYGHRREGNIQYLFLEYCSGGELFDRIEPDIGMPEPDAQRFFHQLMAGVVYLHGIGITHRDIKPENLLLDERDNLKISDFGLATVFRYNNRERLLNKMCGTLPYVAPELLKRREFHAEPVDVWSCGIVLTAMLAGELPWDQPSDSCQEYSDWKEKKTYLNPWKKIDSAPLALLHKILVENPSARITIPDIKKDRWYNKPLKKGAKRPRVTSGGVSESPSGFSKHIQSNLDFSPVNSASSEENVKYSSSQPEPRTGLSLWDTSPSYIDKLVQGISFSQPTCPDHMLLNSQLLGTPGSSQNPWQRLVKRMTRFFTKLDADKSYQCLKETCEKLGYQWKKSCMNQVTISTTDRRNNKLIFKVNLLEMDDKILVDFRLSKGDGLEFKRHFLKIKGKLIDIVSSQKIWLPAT
The following applies: at 10 µM.

The target in assay [20] is STE20/SPS1-related proline-alanine-rich protein kinase (Homo sapiens) (UniProt Q9UEW8). Briefly: Selectivity interaction (Kinase panel (KiNativ target engagement assay in Jurkat cells)) EUB0001635a STK39. To be noted: Selectivity number of off-targets 0.0, Selectivity number of targets 233.0, Source Knowledge https://www.sciencedirect.com/science/article/pii/S2451945619300674?via%3Dihub, at 1 µM. In kind it is cell-based.

Chain of Tyrosine-protein kinase ABL2 (P42684 whole entry): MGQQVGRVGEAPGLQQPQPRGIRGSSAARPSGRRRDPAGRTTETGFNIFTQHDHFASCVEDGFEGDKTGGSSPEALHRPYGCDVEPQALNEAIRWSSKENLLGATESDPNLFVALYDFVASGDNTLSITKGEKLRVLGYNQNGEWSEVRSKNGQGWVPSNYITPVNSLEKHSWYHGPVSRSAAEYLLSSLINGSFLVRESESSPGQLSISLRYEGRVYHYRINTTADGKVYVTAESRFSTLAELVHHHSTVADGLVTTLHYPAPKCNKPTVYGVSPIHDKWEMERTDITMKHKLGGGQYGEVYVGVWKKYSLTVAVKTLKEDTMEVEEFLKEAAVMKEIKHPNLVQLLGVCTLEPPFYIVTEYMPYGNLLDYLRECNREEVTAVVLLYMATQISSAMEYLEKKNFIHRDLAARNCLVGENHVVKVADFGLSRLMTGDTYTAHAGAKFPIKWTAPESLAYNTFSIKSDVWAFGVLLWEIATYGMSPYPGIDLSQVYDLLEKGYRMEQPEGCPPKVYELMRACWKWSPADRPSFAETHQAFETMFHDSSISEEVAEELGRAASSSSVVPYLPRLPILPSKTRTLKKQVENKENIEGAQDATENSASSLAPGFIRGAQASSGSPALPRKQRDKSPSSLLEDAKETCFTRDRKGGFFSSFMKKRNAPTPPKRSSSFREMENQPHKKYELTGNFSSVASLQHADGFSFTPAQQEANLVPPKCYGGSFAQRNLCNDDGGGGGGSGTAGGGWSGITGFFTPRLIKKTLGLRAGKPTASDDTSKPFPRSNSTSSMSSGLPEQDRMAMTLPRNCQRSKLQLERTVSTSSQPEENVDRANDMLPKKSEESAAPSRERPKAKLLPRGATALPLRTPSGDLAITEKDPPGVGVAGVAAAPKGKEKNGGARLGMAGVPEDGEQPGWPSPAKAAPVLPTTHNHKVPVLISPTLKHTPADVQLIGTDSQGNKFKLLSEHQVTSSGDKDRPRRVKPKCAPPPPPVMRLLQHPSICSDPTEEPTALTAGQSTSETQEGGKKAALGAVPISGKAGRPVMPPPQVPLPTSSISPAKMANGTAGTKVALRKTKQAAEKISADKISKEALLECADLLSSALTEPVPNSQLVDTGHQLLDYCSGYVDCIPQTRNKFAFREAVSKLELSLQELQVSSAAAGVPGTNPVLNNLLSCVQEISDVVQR
Chain of Tyrosine-protein kinase Fgr (Homo sapiens) (P09769 2-529 limits assumed): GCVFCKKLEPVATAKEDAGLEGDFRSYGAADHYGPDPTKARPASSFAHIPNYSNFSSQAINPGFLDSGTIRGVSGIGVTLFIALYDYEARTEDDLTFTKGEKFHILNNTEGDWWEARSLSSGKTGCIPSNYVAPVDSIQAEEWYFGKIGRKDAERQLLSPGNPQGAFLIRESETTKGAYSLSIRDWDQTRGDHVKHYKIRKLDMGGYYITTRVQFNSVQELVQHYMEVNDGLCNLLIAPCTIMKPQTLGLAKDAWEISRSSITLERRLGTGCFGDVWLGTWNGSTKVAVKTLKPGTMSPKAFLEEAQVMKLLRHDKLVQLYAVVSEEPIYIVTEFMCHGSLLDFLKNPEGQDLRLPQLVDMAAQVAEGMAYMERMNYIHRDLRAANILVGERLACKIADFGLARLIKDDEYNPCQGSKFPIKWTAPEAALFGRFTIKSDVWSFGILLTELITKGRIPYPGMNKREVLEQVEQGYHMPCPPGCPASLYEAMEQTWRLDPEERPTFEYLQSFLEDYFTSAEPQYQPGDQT
Chain of 5'-AMP-activated protein kinase catalytic subunit alpha-2 (Homo sapiens) (P54646 whole entry, looked up): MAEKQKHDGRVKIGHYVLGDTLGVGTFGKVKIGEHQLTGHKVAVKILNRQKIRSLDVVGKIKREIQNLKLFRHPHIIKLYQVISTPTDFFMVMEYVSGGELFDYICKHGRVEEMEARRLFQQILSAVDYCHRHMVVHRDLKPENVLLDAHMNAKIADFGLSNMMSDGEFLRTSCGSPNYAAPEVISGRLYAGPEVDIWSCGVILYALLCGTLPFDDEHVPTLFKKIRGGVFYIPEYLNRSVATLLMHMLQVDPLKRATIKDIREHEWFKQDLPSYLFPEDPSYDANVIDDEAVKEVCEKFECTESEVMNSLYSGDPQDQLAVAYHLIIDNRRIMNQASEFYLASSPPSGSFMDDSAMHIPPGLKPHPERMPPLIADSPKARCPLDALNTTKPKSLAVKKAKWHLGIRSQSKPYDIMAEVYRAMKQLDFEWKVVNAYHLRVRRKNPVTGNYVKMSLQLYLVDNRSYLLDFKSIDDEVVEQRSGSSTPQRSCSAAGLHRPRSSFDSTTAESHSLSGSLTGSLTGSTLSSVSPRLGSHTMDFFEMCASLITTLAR

`CN(C)C/C=C/C(=O)Nc1ccc(C(=O)N2CCCC(Nc3ncc(Cl)c(-c4c[nH]c5ccccc45)n3)C2)cc1` (stereo unspecified): in assay [1], the % of control was 75%.
Consider `CCN(CC)CCCCNc1ncc2cc(-c3cc(OC)cc(OC)c3)c(NC(=O)NC(C)(C)C)nc2n1`, for which the % of control in assay [2] was 100%.
In turn, `Nc1cnc(N2CCc3cc(S(=O)(=O)Nc4c(F)cc(Cl)cc4F)cc(N4CCCC4=O)c32)nc1` [TP-020n] had a % of control in assay [3] of 100%.
As to `COc1cc(Nc2nc(C)cc(-c3cnn4nc(OC)ccc34)n2)cc(C(F)(F)F)c1`, the % of control in [4] stood at 84%; in assay [5] it was 66%; in assay [6] it was 96%; in assay [7] it was 100%; in assay [8], 85%; in assay [9], 62%. Besides, the % of control was determined as 80% in assay [10] and 89% in assay [11].
Turning to `CN(C)CCOc1ccc(-c2nc(-c3ccncc3)c(-c3ccc4c(c3)CC/C4=N\O)[nH]2)cc1`, the % of control in assay [12] worked out at 97%.
`C=CC(=O)Nc1cc(-n2c(=O)ccc3cnc4ccc(-c5ccc(NS(C)(=O)=O)cc5)cc4c32)ccc1C`: the % of control was 100% in [13] (at 1 µM), 75% in assay [13] (at 10 µM), 100% in assay [14] (at 1 µM) and 99% in assay [14] (at 10 µM).
Take `CC[C@@H]1[C@H](F)C(=O)N[C@@H]1COc1nccc2cc(C(N)=O)c(OC)cc12` [ZIMLOVISERTIB]: the % of inhibition is 52% in assay [15] (at 0.01 µM); -16% in assay [15] (at 0.04 µM); -25.4% in [15] (at 0.2 µM); -5.3% in assay [15] (at 1 µM); -19.6% in assay [15] (at 5 µM); 21.6% in assay [16].
As for `COc1cc(N(C)c2ccnc3ccc(C(F)(F)F)cc23)cc(OC)c1OC`, in assay [17], the % binding is 96%.
With `COCC(=O)NC/C=C/c1ccc2ncnc(Nc3ccc(Oc4ccc(C)nc4)c(C)c3)c2c1` [CP-724714], the % of control in [18] came out at 88%; in assay [19], 90%.
Consider `C=CC(=O)Nc1ccc(C(=O)Nc2[nH]nc3c2CN(C(=O)N[C@H](CN(C)C)c2ccccc2)C3(C)C)cc1`, for which the % of engagement in assay [20] was 11.5%.

Source of the values: ChEMBL document CHEMBL5465560, “Selectivity Literature for EUbOPEN Chemogenomic Library” (2024).
